According to patent US20210038559A1, “CANNABINOIDS AND DERIVATIVES FOR PROMOTING IMMUNOGENICITY OF TUMOR AND INFECTED CELLS” (priority 2018, published 2021):
Where a name gives a salt, the structure may show the parent alone.

system: MHC-I expression by COLO 205 cells; test: cells; format: cell-based, human; conditions: not given
Protocol: A panel of synthetic cannabinoids (Cayman Chemical, #9002891) was tested for MHC class I-inducing capability in COLO 205 cells as described above. COLO 205 cells were treated with the compounds at a concentration of 35 μM and evaluated for cell surface MHC class I expression after 48 hours. Cells were harvested, stained with MHC-I mAb W6/32 (Thermo Fisher). MHC-I expression was determined by flow cytometry.

Compound | Induction Fold [Fold]
CCCCCn1cc(C(=O)c2cccc3ccccc23)cc1-c1ccccc1 [Example 77, 1-naphthalenyl(1-pentyl-5-phenyl-1H-pyrrol-3-yl)-methanone] | 2.60
CCCCCn1cc(C(=O)c2cccc3ccccc23)cc1-c1ccccc1F [Example 85, [5-(2-fluorophenyl)-1-pentyl-1H-pyrrol-3-yl]-1-naphthalenyl-methanone] | 2.52
CCCCCn1cc(C(=O)NC23CC4CC(CC(C4)C2)C3)c2ccccc21 [Example 108, 1-pentyl-N-tricyclo[3.3.1.1]dec-1-yl-1H-indole-3-carboxamide] | 2.38

same assay, conditions: Homo sapiens, COLO 205, 48 h, MHC-I expression, COLO 205 cells, compounds at 35 μM, 48 hours, flow cytometry (W6/32); read-out: Induction Fold

Compound | fold induction at 35 µM
CC(C)C(C)n1cc(C(=O)c2cccc3ccccc23)c2ccccc21 (centres unmarked) [Example 70, (1-(3-methylbutan-2-yl)-1H-indol-3-yl)(naphthalen-1-yl)methanone] | 2.7
COc1ccccc1CC(=O)c1cn(CCC2CCCCC2)c2ccccc12 [Example 74, 1-(1-(2-cyclohexylethyl)-1H-indol-3-yl)-2-(2-methoxyphenyl)ethanone] | 2.65
CCCCCn1cc(C(=O)c2c(Cl)ccc3ccccc23)c2ccccc21 [Example 75, (2-chloronaphthalen-1-yl)(1-pentyl-1H-indol-3-yl)methanone] | 2.65
CCCCCn1nc(C(=O)NC(C(N)=O)C(C)(C)C)c2ccccc21 (centres unmarked) [Example 76, N-[1-(aminocarbonyl)-2,2-dimethylpropyl]-1-pentyl-1H-indazole-3-carboxamide] | 2.61
CCCc1ccc(C(=O)c2cn(CCC)c3ccccc23)c2ccccc12 [Example 78, (1-propyl-1H-indol-3-yl)(4-propyl-1-naphthalenyl)-methanone] | 2.58
CCCCCn1cc(C(=O)Cc2ccccc2)c2ccccc21 [Example 80, 1-(1-pentyl-1H-indol-3-yl)-2-phenyl-ethanone] | 2.57
CCCCCn1cc(C(=O)c2cccc3cccc(C)c23)c2ccccc21 [Example 81, (8-methylnaphthalen-1-yl)(1-pentyl-1H-indol-3-yl)methanone] | 2.57
CCCC(F)Cn1cc(C(=O)Oc2cccc3cccnc23)c2ccccc21 (centres unmarked) [Example 83, quinolin-8-yl 1-(2-fluoropentyl)-1H-indole-3-carboxylate] | 2.54
COC(=O)[C@@H](NC(=O)c1nn(CCCC(C)F)c2ccccc12)C(C)(C)C (stereo partly drawn) [Example 84, methyl (2S)-2-(1-(4-fluoropentyl)-1H-indazole-3-carboxamido)-3,3-dimethylbutanoate] | 2.53
CCCCCn1cc(C(=O)Cc2cccc(Cl)c2)c2ccccc21 [Example 86, 2-(3-chlorophenyl)-1-(1-pentyl-1H-indol-3-yl)-ethanone] | 2.51
CCCCCn1cc(C(=O)c2cccc3cccc(Br)c23)c2ccccc21 [Example 87, (8-bromonaphthalen-1-yl)(1-pentyl-1H-indol-3-yl)methanone] | 2.51
CCCCCn1cc(C(=O)NC(C(N)=O)C(C)(C)C)c2ccccc21 (centres unmarked) [Example 88, N-(1-amino-3,3-dimethyl-1-oxobutan-2-yl)-1-pentyl-1H-indole-3-carboxamide] | 2.5
CCCCCn1cc(C(=O)c2c(CC)ccc3ccccc23)c2ccccc21 [Example 89, (2-ethylnaphthalen-1-yl)(1-pentyl-1H-indol-3-yl)methanone] | 2.5
CCCCCn1cc(C(=O)c2c(OC)ccc3ccccc23)c2ccccc21 [Example 90, (2-methoxy-1-naphthalenyl)(1-pentyl-1H-indol-3-yl)-methanone] | 2.5
CCCCCn1cc(C(=O)NCc2ccccc2)c2ccccc21 [Example 91, 1-pentyl-N-(phenylmethyl)-1H-indole-3-carboxamide] | 2.48
O=C(Oc1ccnc2ccccc12)c1cn(CCCCCF)c2ccccc12 [Example 92, quinolin-4-yl 1-(5-fluoropentyl)-1H-indole-3-carboxylate] | 2.47
CCCCCn1cc(C(=O)C2C(C)(C)C2(C)C)c2ccccc21 [Example 94, (1-pentyl-1H-indol-3-yl)(2,2,3,3-tetramethylcyclopropyl)-methanone] | 2.45
CC(C)[C@H](NC(=O)c1cn(CC2CCCCC2)c2ccccc12)C(N)=O [Example 96, (S)-N-(1-amino-3-methyl-1-oxobutan-2-yl)-1-(cyclohexylmethyl)-1H-indole-3-carboxamide] | 2.44

Compound | fold induction at 35 µM
O=C(c1cccc2ccccc12)c1nn(CCCCCBr)c2ccccc12 [Example 97, (1-(5-bromopentyl)-1H-indazol-3-yl)(naphthalen-1-yl)methanone] | 2.44
CCCCCn1cc(C(=O)Oc2cccc3cnccc23)c2ccccc21 [Example 99, isoquinolin-5-yl 1-pentyl-1H-indole-3-carboxylate] | 2.43
CCCCCn1nc(C(=O)N[C@H](C(N)=O)C(C)C)c2ccccc21 [Example 100, (S)-N-(1-amino-3-methyl-1-oxobutan-2-yl)-1-pentyl-1H-indazole-3-carboxamide] | 2.43
CCCCCn1cc(C(=O)Cc2ccccc2C)c2ccccc21 [Example 101, 2-(2-methylphenyl)-1-(1-pentyl-1H-indol-3-yl)-ethanone] | 2.42
CC(F)CCCn1cc(C(=O)Oc2cccc3cccnc23)c2ccccc21 (centres unmarked) [Example 102, quinolin-8-yl 1-(4-fluoropentyl)-1H-indole-3-carboxylate] | 2.41
CCC(C)(C)n1cc(C(=O)c2cccc3ccccc23)c2ccccc21 [Example 103, naphthalen-1-yl(1-(tert-pentyl)-1H-indol-3-yl)methanone] | 2.41
CCCC(F)Cn1cc(C(=O)c2cccc3ccccc23)c2ccccc21 (centres unmarked) [Example 104, (1-(2-fluoropentyl)-1H-indol-3-yl)(naphthalen-1-yl)methanone] | 2.41
O=C(Oc1cccc2cnccc12)c1cn(CCCCCF)c2ccccc12 [Example 105, isoquinolin-5-yl 1-(5-fluoropentyl)-1H-indole-3-carboxylate] | 2.4
CCCCCn1cc(C(=O)Cc2ccccc2OC)c2ccccc21 [Example 106, 1-(1-pentyl-1H-indol-3-yl)-2-(2-methoxyphenyl)-ethanone] | 2.39
CC1(C)C(C(=O)c2cn(CCCC(F)(F)F)c3ccccc23)C1(C)C [Example 110, (2,2,3,3-tetramethylcyclopropyl)[1-(4,4,4-trifluorobutyl)-1H-indol-3-yl]-methanone] | 2.37
CC1(C)C(C(=O)N/N=C2\C(=O)N(CCCCCF)c3ccccc32)C1(C)C [Example 111, 2,2,3,3-tetramethyl-cyclopropanecarboxylic acid (2Z)-2-[1-(5-fluoropentyl)-1,2-dihydro-2-oxo-3H-indol-3-ylidene]hydrazide] | 2.37
O=C(c1ccc(F)c2ccccc12)c1cn(CCCCCF)c2ccccc12 [Example 112, (4-fluoro-1-naphthalenyl)[1-(5-fluoropentyl)-1H-indol-3-yl]-methanone] | 2.37
CC(Cl)CCCn1cc(C(=O)C2C(C)(C)C2(C)C)c2ccccc21 (centres unmarked) [Example 113, (1-(4-chloropentyl)-1H-indol-3-yl)(2,2,3,3-tetramethylcyclopropyl)methanone] | 2.36
CCC(Cl)CCn1cc(C(=O)c2cccc3ccccc23)c2ccccc21 (centres unmarked) [Example 114, (1-(3-chloropentyl)-1H-indol-3-yl)(naphthalen-1-yl)methanone] | 2.35
CCCCCn1cc(C(=O)c2cccc3cccc(CC)c23)c2ccccc21 [Example 115, (8-ethylnaphthalen-1-yl)(1-pentyl-1H-indol-3-yl)methanone] | 2.35
O=C(c1cccnc1)c1cn(CCCCCF)c2ccccc12 [Example 116, (1-(5-fluoropentyl)-1H-indol-3-yl)(pyridin-3-yl)methanone, monohydrochloride] | 2.34
CCCCCCCn1cc(C(=O)C2C(C)(C)C2(C)C)c2ccccc21 [Example 118, (1-heptyl-1H-indol-3-yl)(2,2,3,3-tetramethylcyclopropyl)-methanone] | 2.33

same assay, conditions: MHC-I expression, COLO 205 cells, compounds at 35 μM, 48 hours, flow cytometry (W6/32)

Compound | Induction Fold [Fold]
CCCCCn1cc(C(=O)c2cccc3ccccc23)c2ccccc21 [Example 71, (1-pentyl-1H-indol-3-yl)-1-naphthalenyl-methanone] | 2.69
O=C(c1cccc2ccccc12)c1cn(CCCCCF)c2ccccc12 [Example 79, [1-(5-fluoropentyl)-1H-indol-3-yl]-1-naphthalenyl-methanone] | 2.57
CN1CCCCC(n2cc(C(=O)C34CC5CC(CC(C5)C3)C4)c3ccccc32)C1 (centres unmarked) [Example 93, (3,5,7)-adamantan-1-yl(1-(1-methylazepan-3-yl)-1H-indol-3-yl)methanone] | 2.46
COCCn1c(C)c(C)sc1=NC(=O)C1C(C)(C)C1(C)C [Example 95, [N(Z)]-N-[3-(2-methoxyethyl)-4,5-dimethyl-2(3H)-thiazolylidene]-2,2,3,3-tetramethyl-cyclopropanecarboxamide] | 2.44
CCCCCn1c(C)c(C(=O)c2cccc3ccccc23)c2ccccc21 [Example 98, (2-methyl-1-pentyl-1H-indol-3-yl)-1-naphthalenyl-methanone] | 2.43
O=C(NC12CC3CC(CC(C3)C1)C2)c1nn(Cc2ccc(F)cc2)c2ccccc12 [Example 117, N-((3s,5s,7s)-adamantan-1-yl)-1-(4-fluorobenzyl)-1H-indazole-3-carboxamide] | 2.34
